These results are taken from ChEMBL document CHEMBL1201862, “PubChem BioAssay data set” (2004).

Among the test systems are HT-29; SF-539; K562; HOP-62; OVCAR-4; SF-268; HCT-15; UACC-62; HCC 2998; IGROV-1; Hs-578T; A549; HL-60; CCRF-CEM; MDA-MB-435; BT-549; SW-620; MDA-MB-231; Malme-3M; SK-OV-3.
What all share (experiment): NCI anticancer screen, dose series, 48 h

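Tested at 5 concentrations; 48 h exposure; 96-well plates; endpoints linearly interpolated, else capped at highest concentration. GI50 is the concentration that inhibits growth by half.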 Activity calls are given as the source filed them. Cut-off read from the data, not from the text of the source: active = GI50 up to about 1.1 µM and inactive = higher. Some results are limits rather than exact numbers.

With `COC1=C(Br)[C@H](O)[C@@]2(C=C1Br)CC(C(=O)NCCCCCNC(=N)N)=NO2` [APLYSINAMISINE II], the GI50 in the experiment on HT-29, in the experiment on SF-539, in the experiment on K562, with HOP-62, in the experiment on OVCAR-4 and in the experiment with SF-268 was > 10 µM (inactive) in each case. Besides, the GI50 was > 10 µM in the experiment on HCT-15; > 10 µM (inactive) with UACC-62; > 10 µM (inactive) with HCC 2998; > 10 µM (inactive) in the experiment on IGROV-1; > 10 µM (inactive) in the experiment on Hs-578T; > 10 µM (inactive) with A549. The GI50 with HL-60, in the experiment with CCRF-CEM, with MDA-MB-435, in the experiment with BT-549, in the experiment with SW-620 and in the experiment with MDA-MB-231 was > 10 µM (inactive) throughout. Further, the GI50 with Malme-3M and with SK-OV-3 was > 10 µM (inactive) in each case.
As for `NC(=O)c1cc(N2CC2)c([N+](=O)[O-])cc1[N+](=O)[O-]` [TRETAZICAR], the GI50 with HT-29, with SF-539, in the experiment with K562, in the experiment with HOP-62, in the experiment with OVCAR-4 and in the experiment on SF-268 was > 100 µM (inactive) each time. The GI50 in the experiment on HCT-15 is > 145 µM; with UACC-62, > 100 µM (inactive); with HCC 2998, > 100 µM (inactive); in the experiment on IGROV-1 it was > 100 µM (inactive); in the experiment with Hs-578T it was > 200 µM (inactive); in the experiment with A549 it was > 184 µM (inactive). In addition, the GI50 with HL-60 is > 100 µM (inactive); with CCRF-CEM, > 100 µM (inactive); in the experiment with MDA-MB-435, > 200 µM (inactive); in the experiment with BT-549, > 100 µM (inactive); in the experiment with SW-620, > 100 µM (inactive); with MDA-MB-231, > 200 µM (inactive). Further, the GI50 is > 129 µM (inactive) in the experiment with Malme-3M and > 100 µM (inactive) in the experiment with SK-OV-3.
